Measured values reported in publication PMC9823097, “Dysregulation of PRMT5 in chronic lymphocytic leukemia promotes progression with high risk of Richter’s transformation” (Nature Communications, 2023).

Legend:
[1] = biological target: 38 other methyltransferases (e.g DNMTs, MLL1-4 complexes, EZH1 and EZH2 complexes, NRMTs, NSD, SUVs, SMYs, SETs, PRDM9), and other members of the PRMT family; test: Methyltransferase selectivity panel, 3H-SAM radioligand with filtration binding; format: biochemical
Procedure: (§1) For in vitro assays, the compound was stored in a 10 mM solution in DMSO. For in vivo assays, PRT382 was dissolved in a 0.5% methylcellulose, 0.1% tween solution, and administered as oral gavage. For Pharmacokinetic studies, PRT382 was formulated in 0.5% carboxymethylcellulose sodium salt + 0.5%Tween80 as a 1 mg/mL suspension for 10 mg/kg and was administered in a 10 mL/kg dose volume by oral gavage to CD-1 mice. Blood was collected at various time points after dosing into EDTA-K2 tubes, placed on ice, and stored at −80 °C prior to analysis by LC-MS/MS. For biochemical potency and selectivity, PRT382 was solubilized in 100% DMSO and diluted serially threefold. For assessment of selectivity, enzyme activity against a panel of 37 methyltransferases was evaluated using 3H-SAM as a radioligand probe with filtration binding. PRT382 was tested in duplicate at a final concentration of 10 µM. The percent of enzyme activity relative to DMSO control condition was determined for each enzyme.

[2] = tested on: Granta-519 lymphoma cell line; test: Reducing sDMA assay (western blot of cellular sDMA) in Granta-519; format: cell-based; details: for sDMA signal normalized to β-Actin and DMSO control: DMSO = 100
Procedure: For western blot analysis of Cellular sDMA in Granta-519, one day before the experiment, Granta-519 cells were passaged to a density of 0.5 × 10^6 cells/ml. The next day, Granta-519 cells were spun down at 1500 rpm for 4 min, resuspended in fresh medium at 0.5E6 cells/ml and 3 mL of culture (1.5E6 cells) were seeded into a six-well plate. Eight-point, threefold serial dilutions of compound working stocks were added to cells (3 µl, 1:1000 dilution, DMSO concentration was 0.1%; final top concentration at 1 µM) and incubated for 3 days. Cells incubated with DMSO was used as vehicle control. Cells were harvested 3 days later, resuspended in 15 µL PBS, lysed in 4% SDS, and homogenized by passing through homogenizer column (Omega Biotek, Catalog #: HCR003). Total protein concentrations were determined by BCA assay (ThermoFisher Scientific, Catalog #: 23225). Lysates were mixed with 5× Laemmli buffer and boiled for 5 min. Forty micrograms of total protein was separated on SDS-PAGE gels (Bio-Rad, catalog #: 4568083, 4568043), transferred to PVDF membrane, and blocked with 5% dry milk (Bio-Rad, Catalog #: 1706404) in TBS with 0.1% v/v Tween20 (TBST) for 1 h at room temperature (RT), and incubated with primary antibodies (sDMA: Cell signaling, Catalog #: 13222, 1:3,000; β-actin: sigma, Catalog #: A2228, 1:5000) in 5% dry milk in TBST at 4 °C overnight. The next day, membranes were washed with TBST, 5 × 5 min, and incubated with HRP conjugated seconded antibody (GE Healthcare; Catalog #: NA9341 ML, NA931-1ML; 1:5000) for 2 hours at RT, followed by 5 × 5 min washes with TBST, and incubation with ECL substrates (Bio-Rad, Catalog #: 1705061, 1705062). The chemiluminescent signal was captured with Fluochem HD2 imager (Proteinsimple). SmD3me2s bands were quantified by ImageJ. Signals were normalized to β-Actin and DMSO control. IC50 values were calculated using Graphpad Prism (v9.2.0) ([Inhibitor] vs. normalized response – Variable slope).

[3] = Tolerability after 5 daily oral doses in WT CD-1 mice; format: in vivo; details: 10, 30 and 100 mg/kg
Procedure: as §1

[4] = Pharmacokinetics in dogs (clearance, oral bioavailability); format: in vivo
[5] = Pharmacokinetic study, oral gavage to CD-1 mice, blood analyzed by LC-MS/MS; format: in vivo; details: for peak plasma level: WT CD-1 mice; for DNAUC / blood concentration at time point 0.25 / blood concentration at time point 0.5 / blood concentration at time point 1 h / blood concentration at time point 2 h / blood concentration at time point 4 h / blood concentration at time point 8 h / blood concentration at time point 12 h / blood concentration at time point 24 h / AUC / AUC(0-t) / Cmax / MRT / Tmax / half-life: 1d-single dose, male CD-1 mice, fed, blood analysis; for DNAUC / AUC / AUC(0-t) / Cmax / MRT / Tmax / half-life: 0.5%CMC+0.5%Tween80; for AUC / AUC(0-t) / Cmax / MRT / Tmax / half-life: mouse, whole blood, po
Procedure: as §1, with “[…] […]” for “For in vivo assays, PRT382 was dissolved in a 0.5% methylcellulose, 0.1% tween solution, and administered as oral gavage. For Pharmacokinetic studies, PRT382 was formulated in 0.5% carboxymethylcellulose sodium salt + 0.5%Tween80 as a 1 mg/mL suspension for 10 mg/kg and was administered in a 10 mL/kg dose volume by oral gavage to CD-1 mice.”

Q: For `CON=c1nc[nH]c2c1ccn2[C@@H]1O[C@H]([C@H](O)c2ccc(Cl)c(Cl)c2)[C@@H](O)[C@H]1O.Cl` [PRT382, (2 R,3 S,4 R,5 R)-2-[(R)-(3,4-dichlorophenyl)-hydroxy-methyl]-5-[(4Z)-4-methoxyimino-1H-pyrrolo[2,3-d]pyrimidin-7-yl]tetrahydrofuran-3,4-diol hydrochloride], which IC50 ([1]; 38 other methyltransferases and other PRMT family members, read-out: IC50 against other methyltransferases) is on record?
A: > 1000 nM

Q: What about the “inhibition of other tested methyltransferases” value ([1]; PRT382 at 10 uM) of the same compound?
A: ≤ 20%

Q: What about the “sDMA signal normalized to β-Actin and DMSO control” value (“sDMA signal normalized” for short) ([2]; Conc. 0.000457247 µM) of the same compound?
A: 88.6989

Q: What about the “sDMA signal normalized” value ([2]; Conc. 0.00137174 µM) of the same compound?
A: 97.8569

Q: What about the “sDMA signal normalized” value ([2]; Conc. 0.00411523 µM) of the same compound?
A: 93.6002

Q: And the “sDMA signal normalized” value ([2]; Conc. 0.0123457 µM)?
A: 75.2291

Q: And the “sDMA signal normalized” value ([2]; Conc. 0.037037 µM)?
A: 39.1378

Q: And the “sDMA signal normalized” value ([2]; Conc. 0.111111 µM)?
A: 15.0036

Q: What about the “sDMA signal normalized” value ([2]; Conc. 0.333333 µM) of the same compound?
A: 6.086

Q: What about the “sDMA signal normalized” value ([2]; Conc. 1 µM) of the same compound?
A: 6.863

Q: What about the IC50 ([2]; Homo sapiens, 72 h, Granta-519, 3 days) of the same compound?
A: 27 nM

Q: And the tolerability [3]?
A: well-tolerated

Q: And the observable toxicity ([3]; after 5 daily oral doses)?
A: without observable toxicity

Q: What about the clearance [4] of the same compound?
A: low

Q: What about the bioavailability ([4]; dog, in vivo, po, read-out: oral bioavailability (F%)) of the same compound?
A: 70 to 80%

Q: And the peak plasma level ([5]; 10 mg/kg oral)?
A: 12 µM

Q: And the DNAUC ([5]; 10 mg/kg)?
A: 1180 kg·ng·h/mL/mg

Q: What about the “blood concentration at time point 0.25” value ([5]; 10 mg/kg) of the same compound?
A: 2530

Q: What about the “blood concentration at time point 0.5” value ([5]; 10 mg/kg) of the same compound?
A: 3240

Q: And the “blood concentration at time point 1 h” value ([5]; 10 mg/kg)?
A: 2973

Q: And the “blood concentration at time point 2 h” value ([5]; 10 mg/kg)?
A: 1733

Q: What about the “blood concentration at time point 4 h” value ([5]; 10 mg/kg) of the same compound?
A: 908

Q: What about the “blood concentration at time point 8 h” value ([5]; 10 mg/kg) of the same compound?
A: 530

Q: And the “blood concentration at time point 12 h” value ([5]; 10 mg/kg)?
A: 46

Q: What about the blood concentration at time point 24 h ([5]; 10 mg/kg) of the same compound?
A: 0 ng/mL

Q: And the peak plasma level ([5]; 30 mg/kg oral)?
A: 32 µM

Q: And the DNAUC ([5]; 30 mg/kg)?
A: 763 kg·ng·h/mL/mg

Q: What about the “blood concentration at time point 0.25” value ([5]; 30 mg/kg) of the same compound?
A: 3753

Q: And the “blood concentration at time point 0.5” value ([5]; 30 mg/kg)?
A: 4560

Q: What about the “blood concentration at time point 1 h” value ([5]; 30 mg/kg) of the same compound?
A: 4613

Q: What about the “blood concentration at time point 2 h” value ([5]; 30 mg/kg) of the same compound?
A: 2990

Q: And the “blood concentration at time point 4 h” value ([5]; 30 mg/kg)?
A: 2027

Q: And the “blood concentration at time point 8 h” value ([5]; 30 mg/kg)?
A: 1350

Q: And the “blood concentration at time point 12 h” value ([5]; 30 mg/kg)?
A: 138

Q: And the blood concentration at time point 24 h ([5]; 30 mg/kg)?
A: 0 ng/mL

Q: What about the peak plasma level ([5]; 100 mg/kg oral) of the same compound?
A: 75 µM

Q: What about the DNAUC ([5]; 100 mg/kg) of the same compound?
A: 1700 kg·ng·h/mL/mg

Q: What about the “blood concentration at time point 0.25” value ([5]; 100 mg/kg) of the same compound?
A: 20267

Q: And the “blood concentration at time point 0.5” value ([5]; 100 mg/kg)?
A: 25300

Q: And the “blood concentration at time point 1 h” value ([5]; 100 mg/kg)?
A: 25500

Q: And the “blood concentration at time point 2 h” value ([5]; 100 mg/kg)?
A: 21367

Q: And the “blood concentration at time point 4 h” value ([5]; 100 mg/kg)?
A: 16300

Q: And the “blood concentration at time point 8 h” value ([5]; 100 mg/kg)?
A: 10253

Q: What about the “blood concentration at time point 12 h” value ([5]; 100 mg/kg) of the same compound?
A: 1753

Q: And the blood concentration at time point 24 h ([5]; 100 mg/kg)?
A: 7 ng/mL

Q: What about the AUC ([5]; 10 mg/kg) of the same compound?
A: 11700 ng·h/mL

Q: And the AUC(0-t) ([5]; 10 mg/kg)?
A: 11600 ng·h/mL

Q: What about the Cmax ([5]; 10 mg/kg) of the same compound?
A: 3240 ng/mL

Q: And the MRT ([5]; 10 mg/kg)?
A: 3.34 h

Q: What about the Tmax ([5]; 10 mg/kg) of the same compound?
A: 0.5 h

Q: And the half-life ([5]; 10 mg/kg)?
A: 1.87 h

Q: And the AUC ([5]; 30 mg/kg)?
A: 22900 ng·h/mL

Q: What about the AUC(0-t) ([5]; 30 mg/kg) of the same compound?
A: 22300 ng·h/mL

Q: What about the Cmax ([5]; 30 mg/kg) of the same compound?
A: 4670 ng/mL

Q: And the MRT ([5]; 30 mg/kg)?
A: 4 h

Q: What about the Tmax ([5]; 30 mg/kg) of the same compound?
A: 0.83 h

Q: And the half-life ([5]; 30 mg/kg)?
A: 2.25 h

Q: What about the AUC ([5]; 100 mg/kg) of the same compound?
A: 170000 ng·h/mL

Q: What about the AUC(0-t) ([5]; 100 mg/kg) of the same compound?
A: 170000 ng·h/mL

Q: What about the Cmax ([5]; 100 mg/kg) of the same compound?
A: 25800 ng/mL

Q: What about the MRT ([5]; 100 mg/kg) of the same compound?
A: 4.6 h

Q: And the Tmax ([5]; 100 mg/kg)?
A: 0.67 h

Q: What about the half-life ([5]; 100 mg/kg) of the same compound?
A: 1.53 h
